Several values for one entry are separate records, joined by “and”; a condition that tells them apart may be missing. Identical values can stand only once.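 Dose response: 5 concentrations. Exposure: 48 h. Format: 96-well plates. Endpoint: linear interpolation; highest concentration if not reached. Here, GI50 denotes the concentration required for 50% inhibition of growth. TGI: concentration producing complete growth inhibition.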
Experiments:
Experiment in all cases: NCI anticancer screen, dose series, 48 h
ACHN renal = test system: ACHN renal
EKVX NSCLC = test system: EKVX NSCLC
HL-60(TB) leukemia = test system: HL-60(TB) leukemia
HOP-92 NSCLC = test system: HOP-92 NSCLC
NCI/ADR-RES ovarian = test system: NCI/ADR-RES ovarian
SF-268 CNS = test system: SF-268 CNS
SK-MEL-2 melanoma = test system: SK-MEL-2 melanoma
SK-MEL-28 melanoma = test system: SK-MEL-28 melanoma
T-47D breast = test system: T-47D breast
UACC-62 melanoma = test system: UACC-62 melanoma

SMILES | GI50 (ACHN renal) [µM] | TGI (ACHN renal) [µM] | GI50 (EKVX NSCLC) | TGI (EKVX NSCLC) [µM] | GI50 (HL-60(TB) leukemia) | TGI (HL-60(TB) leukemia) [µM] | GI50 (HOP-92 NSCLC) | TGI (HOP-92 NSCLC) | GI50 (NCI/ADR-RES ovarian) | TGI (NCI/ADR-RES ovarian) [µM] | GI50 (SF-268 CNS) | TGI (SF-268 CNS) [µM] | GI50 (SK-MEL-2 melanoma) | TGI (SK-MEL-2 melanoma) [µM] | GI50 (SK-MEL-28 melanoma) | TGI (SK-MEL-28 melanoma) [µM] | GI50 (T-47D breast) | TGI (T-47D breast) [µM] | GI50 (UACC-62 melanoma) | TGI (UACC-62 melanoma) [µM]
COc1ccc(-c2cs/c(=N\N=C\c3ccc(O)cc3O)n2/N=C/c2ccc(O)cc2O)cc1 | 1.8 | 3.84 | 2.32 µM | 6.73 | 1.76 µM | 6.09 | 2.38 µM | 6.51 µM | 2.02 µM | 5.35 | 2.36 µM | 6.13 | 2.14 µM | 4.87 | 1.88 µM | 4.15 | 1.65 µM | 6.22 | 1.76 µM | 3.73
CN(CCCCCl)P(=O)(OCCS(=O)(=O)CC(NC(=O)CCC(N)C(=O)O)C(=O)NC(C(=O)O)c1ccccc1)OCC1OC(n2ccc(N)nc2=O)C(F)(F)C1O (stereo not drawn) |  | > 33.8 | 11.4 µM | > 100 | 0.0339 µM | 5.23 | 0.379 µM | 8.63 µM | 0.0664 µM | > 62.8 | 0.337 µM | > 100 | > 63.7 µM | > 100 | 5.06 µM | > 100 | 1.33 µM | > 100 | 0.377 µM | > 65.4
CC(=O)c1ccc2c(c1)C1C=CCC1[C@H](c1cc3c(cc1Br)OCO3)N2 (stereo partly drawn) | 1.63 | 22.1 | 1.38 µM | > 52.5 | 1.3 µM | 5.07 | < 0.0385 µM | 0.479 µM | 1.33 µM | 4.71 | 0.67 µM | 19.1 | 1.22 µM | 12.4 | 0.626 µM | 6.56 | 1.74 µM | > 47.4 | 1.46 µM | > 31.1
COc1cc(F)c(F)c(Nc2ccc(I)cc2F)c1NS(=O)(=O)C1(C[C@H](O)CO)CC1 | 0.897 | > 10 | 0.323 µM | > 10 | 0.0219 µM | > 10 | 0.189 µM | 1.68 µM | > 5.58 µM | > 10 | 5.72 µM | > 10 | 0.0416 µM | > 2.01 | 0.029 µM | 0.448 | > 4.02 µM | > 9.3 | 0.0158 µM | 0.172
O=C(NOC[C@H](O)CO)c1ccc(F)c(F)c1Nc1ccc(I)cc1F |  | > 100 | 0.101 µM and 0.0891 µM | > 100 | < 0.01 µM and 0.0166 µM | > 100 | 0.0377 µM and 0.0201 µM | 0.613 µM and 0.43 µM | 12.3 µM and 6.3 µM | > 100 | 25.6 µM and > 2.28 µM | > 100 | < 0.01 µM and 0.00337 µM |  | < 0.01 µM and 0.00192 µM |  | 51.5 µM and > 4.02 µM | > 100 | < 0.01 µM and 0.00155 µM | 
Nc1nonc1-c1nc2cnccc2n1C1CC1 | 6.25 | > 25 | 1.63 µM | > 25 | 5.32 µM | 14.6 | 0.502 µM | > 25 µM | 10.6 µM | > 25 | 4.98 µM | > 25 | 5.35 µM | > 21.7 | 8.47 µM | > 20.9 | 5.7 µM | > 22.3 | 7.59 µM | > 25
CN(C)CCNc1ccc(CO)c2sc3ccc(O)cc3c(=O)c12 |  | 6.75 |  | 19.1 |  | 6.13 |  | 7.35 µM |  | 17.2 |  | 8.82 |  | 11.6 |  | 19.1 |  | 7.68 |  | 7.75
O=[N+]([O-])c1cc(Cl)c2[nH]c3c(Cl)cc([N+](=O)[O-])cc3c2c1 | 0.362 |  | 0.244 µM | > 27.1 | 0.304 µM | 6.34 | 0.0596 µM | 0.405 µM | 0.345 µM |  | 0.403 µM | > 100 | 0.347 µM | 2.19 | 0.47 µM | > 100 | 0.254 µM | > 100 | 0.247 µM | > 100
